Here are results for 24 compounds from ChEMBL document CHEMBL1201862, “PubChem BioAssay data set” (2004).

Test [1] concerns the target T1, Replicative DNA helicase DnaB (Mycobacterium tuberculosis, UniProt P9WMR3).
T1 sequence (P9WMR3 whole entry): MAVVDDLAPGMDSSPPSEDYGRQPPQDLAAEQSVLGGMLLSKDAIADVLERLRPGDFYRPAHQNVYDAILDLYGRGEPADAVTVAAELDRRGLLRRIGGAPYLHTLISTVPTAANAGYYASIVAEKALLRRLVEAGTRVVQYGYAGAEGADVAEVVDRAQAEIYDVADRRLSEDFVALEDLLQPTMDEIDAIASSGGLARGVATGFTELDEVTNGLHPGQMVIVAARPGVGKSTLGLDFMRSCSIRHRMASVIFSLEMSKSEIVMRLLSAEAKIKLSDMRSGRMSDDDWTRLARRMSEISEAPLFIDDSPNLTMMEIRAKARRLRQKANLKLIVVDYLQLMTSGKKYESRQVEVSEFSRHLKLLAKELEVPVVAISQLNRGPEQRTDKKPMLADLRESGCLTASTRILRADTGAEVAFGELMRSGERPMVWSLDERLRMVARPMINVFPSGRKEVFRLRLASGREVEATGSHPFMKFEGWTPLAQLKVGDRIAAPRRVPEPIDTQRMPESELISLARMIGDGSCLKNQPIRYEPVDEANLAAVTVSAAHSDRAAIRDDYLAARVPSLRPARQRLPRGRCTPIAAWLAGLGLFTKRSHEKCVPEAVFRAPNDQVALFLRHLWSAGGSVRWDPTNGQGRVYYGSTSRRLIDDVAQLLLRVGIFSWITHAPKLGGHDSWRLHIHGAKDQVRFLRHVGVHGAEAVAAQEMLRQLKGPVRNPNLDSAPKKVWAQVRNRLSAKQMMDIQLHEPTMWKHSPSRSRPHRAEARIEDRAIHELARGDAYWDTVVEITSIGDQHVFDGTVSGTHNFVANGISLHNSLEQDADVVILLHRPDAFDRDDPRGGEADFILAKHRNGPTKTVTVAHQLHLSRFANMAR
The test can be described thus: DnaB intein splicing inhibitors, dose response, biochemical, cell-free fluorescence (AID 449749). The format is functional.

Test [2] has as its target T2, Corticotropin-releasing factor receptor 2/Corticotropin-releasing factor-binding protein (Homo sapiens, UniProt P24387+Q13324).
T2 sequence (Q13324 whole entry): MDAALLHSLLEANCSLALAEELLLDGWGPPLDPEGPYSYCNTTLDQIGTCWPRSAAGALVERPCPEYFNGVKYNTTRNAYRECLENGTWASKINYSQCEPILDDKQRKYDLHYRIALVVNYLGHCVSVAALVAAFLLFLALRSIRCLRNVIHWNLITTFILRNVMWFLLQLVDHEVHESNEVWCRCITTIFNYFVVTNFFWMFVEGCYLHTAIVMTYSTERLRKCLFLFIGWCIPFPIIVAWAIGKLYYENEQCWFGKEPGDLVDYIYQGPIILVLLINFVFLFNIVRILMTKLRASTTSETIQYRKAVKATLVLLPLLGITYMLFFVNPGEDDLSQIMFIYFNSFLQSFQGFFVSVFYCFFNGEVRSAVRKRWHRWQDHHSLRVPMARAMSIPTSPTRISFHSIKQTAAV
T2 sequence (P24387 whole entry): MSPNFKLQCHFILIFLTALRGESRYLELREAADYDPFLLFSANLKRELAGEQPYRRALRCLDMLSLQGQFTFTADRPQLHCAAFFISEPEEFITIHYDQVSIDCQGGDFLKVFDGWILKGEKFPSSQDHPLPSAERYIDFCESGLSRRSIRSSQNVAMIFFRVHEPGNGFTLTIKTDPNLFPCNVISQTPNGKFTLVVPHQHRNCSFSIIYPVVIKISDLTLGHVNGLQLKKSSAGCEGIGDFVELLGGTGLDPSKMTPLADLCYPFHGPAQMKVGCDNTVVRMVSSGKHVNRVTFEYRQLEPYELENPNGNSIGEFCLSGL
The test can be described thus: activators of CRF receptor 2 with binding protein – uHTS hits, confirmation (AID 602473). The format is functional. The following applies: read-out: EC50_Mean.

A further test concerns the target T3, Protein RecA (Mycobacterium tuberculosis, UniProt P9WHJ3).
T3 sequence (P9WHJ3 whole entry): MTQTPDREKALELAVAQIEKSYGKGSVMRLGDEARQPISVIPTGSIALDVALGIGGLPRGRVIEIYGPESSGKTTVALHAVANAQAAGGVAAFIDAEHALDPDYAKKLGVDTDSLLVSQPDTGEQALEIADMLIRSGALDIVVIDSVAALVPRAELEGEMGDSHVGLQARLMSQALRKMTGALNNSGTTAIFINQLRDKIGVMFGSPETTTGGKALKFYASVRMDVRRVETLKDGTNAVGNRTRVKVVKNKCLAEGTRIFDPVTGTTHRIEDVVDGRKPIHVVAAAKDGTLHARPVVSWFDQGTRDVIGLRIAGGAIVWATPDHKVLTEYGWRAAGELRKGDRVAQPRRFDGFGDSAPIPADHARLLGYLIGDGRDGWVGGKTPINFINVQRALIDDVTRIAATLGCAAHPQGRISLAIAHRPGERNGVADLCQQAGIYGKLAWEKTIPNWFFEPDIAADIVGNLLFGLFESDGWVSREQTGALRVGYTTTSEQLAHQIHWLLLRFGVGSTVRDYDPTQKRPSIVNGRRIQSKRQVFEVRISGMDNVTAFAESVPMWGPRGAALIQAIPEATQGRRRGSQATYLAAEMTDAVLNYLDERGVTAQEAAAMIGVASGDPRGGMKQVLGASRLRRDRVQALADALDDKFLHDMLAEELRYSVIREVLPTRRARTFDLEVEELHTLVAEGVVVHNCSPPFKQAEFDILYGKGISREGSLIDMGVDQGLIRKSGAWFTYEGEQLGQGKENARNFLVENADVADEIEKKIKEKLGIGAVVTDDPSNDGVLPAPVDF
Briefly: Fluorescence Cell-Free Homogeneous Dose Retest to Identify Inhibitors of RecA-Intein Splicing Activity. [Related pubchem assays (depositor defined):AID2097, AID2223, AID489010, AID492950]. It counts as functional.

Test [3] is described as follows: viability of uninfected HEp-2 cells – cell-based, HTS, cytotoxicity control for RSV inhibitor project, dose response (AID 2410). It counts as functional. The following applies: human respiratory syncytial virus.
Test [4] deals with Streptococcus sp. 'group A'. The test can be described thus: Streptococcus pyogenes SK(-)GAS viability under kanamycin – luminescence, BacTiterGlo, confirmation, counter-screen for streptokinase expression inhibitor project, dose response (AID 1900). It counts as functional, organism-based. (A counterscreen serves to expose hits that act by an unwanted route or on another target.)

A further test addresses T4, Streptokinase A (Streptococcus pyogenes serotype M1, UniProt P10520).
T4 sequence (P10520 whole entry): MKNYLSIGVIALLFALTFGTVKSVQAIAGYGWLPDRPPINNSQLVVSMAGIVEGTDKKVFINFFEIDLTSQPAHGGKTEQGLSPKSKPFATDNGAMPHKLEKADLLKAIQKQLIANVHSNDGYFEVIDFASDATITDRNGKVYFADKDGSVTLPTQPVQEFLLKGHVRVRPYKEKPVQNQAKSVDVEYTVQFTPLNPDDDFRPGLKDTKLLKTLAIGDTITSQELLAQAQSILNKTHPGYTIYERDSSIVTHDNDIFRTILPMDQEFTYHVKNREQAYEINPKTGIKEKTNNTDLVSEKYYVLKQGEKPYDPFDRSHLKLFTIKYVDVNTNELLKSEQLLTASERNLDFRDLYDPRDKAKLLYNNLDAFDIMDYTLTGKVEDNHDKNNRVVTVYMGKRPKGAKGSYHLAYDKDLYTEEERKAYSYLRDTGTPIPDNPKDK
The test can be described thus: viability-normalized secreted streptokinase activity reduction – plasminogen activation absorbance, OD405, dose response (AID 1914).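 Further: secreted streptokinase activity via plasminogen activation per viability signal from cell pellet.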 It counts as functional, Streptococcus pyogenes M1 GAS.

The subject of the next test is Streptococcus. The test can be described thus: GAS UMAA2166 growth inhibition – luminescence, BacTiterGlo, counter-screen for streptokinase expression inhibitor project, dose response (AID 1915).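 Further: potency for reduction of bacterial viability or growth.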 It counts as functional, organism-based.
In a further test the target is Cytochrome P450 2C9 (Homo sapiens, UniProt P11712).
Test [5] deals with T5, Heat shock factor protein 1 (Mus musculus, UniProt P38532).
T5 sequence (P38532 whole entry): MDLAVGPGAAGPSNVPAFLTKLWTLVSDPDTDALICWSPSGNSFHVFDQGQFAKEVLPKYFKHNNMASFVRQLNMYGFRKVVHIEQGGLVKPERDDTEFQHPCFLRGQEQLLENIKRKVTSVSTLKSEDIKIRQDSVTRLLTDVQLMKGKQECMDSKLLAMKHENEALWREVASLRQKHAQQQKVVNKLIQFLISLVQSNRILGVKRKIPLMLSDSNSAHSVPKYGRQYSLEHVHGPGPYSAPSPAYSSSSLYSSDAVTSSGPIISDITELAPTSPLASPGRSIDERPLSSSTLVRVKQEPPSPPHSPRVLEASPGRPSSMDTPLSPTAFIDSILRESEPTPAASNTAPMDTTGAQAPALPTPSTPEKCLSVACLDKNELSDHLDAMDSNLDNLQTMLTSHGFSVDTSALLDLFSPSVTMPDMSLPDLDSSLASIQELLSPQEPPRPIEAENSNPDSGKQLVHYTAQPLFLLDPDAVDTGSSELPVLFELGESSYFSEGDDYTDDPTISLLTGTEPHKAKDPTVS
The test can be described thus: enhancement of HSF1-driven luciferase signal – cell-based, NIH3T3, luminescence, dose retest, confirmation (AID 435004).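 Further: stress induced by proteasome inhibitor MG132 added 30 min after compound; luciferase reporter driven by HSF1 response element in NIH3T3 cells; actives raise luminescence as potentiators of the MG132 stress response.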 The format is functional.

A further test deals with Cytochrome P450 2D6 (Homo sapiens, UniProt P10635).

Structures are written as SMILES. Active and inactive are the calls of the source. For most assays here, no stated cut-off is given here; in the data, actives have a measured EC50 and inactives only a lower limit.

Sequence of Cytochrome P450 2C9 (P11712 whole entry): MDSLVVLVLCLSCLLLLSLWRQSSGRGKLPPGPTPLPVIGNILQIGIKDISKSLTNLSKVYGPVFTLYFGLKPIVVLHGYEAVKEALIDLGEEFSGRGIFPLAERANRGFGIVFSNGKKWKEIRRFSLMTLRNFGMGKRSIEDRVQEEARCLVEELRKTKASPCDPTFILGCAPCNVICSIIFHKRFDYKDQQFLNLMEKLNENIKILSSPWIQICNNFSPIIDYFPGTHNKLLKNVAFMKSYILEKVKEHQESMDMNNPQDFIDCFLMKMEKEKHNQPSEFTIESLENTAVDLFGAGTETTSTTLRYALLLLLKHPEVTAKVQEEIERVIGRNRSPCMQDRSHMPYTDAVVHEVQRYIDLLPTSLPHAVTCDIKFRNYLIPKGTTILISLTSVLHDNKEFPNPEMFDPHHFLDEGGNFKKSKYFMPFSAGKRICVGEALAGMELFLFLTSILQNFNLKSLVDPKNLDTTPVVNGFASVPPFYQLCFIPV
Sequence of Cytochrome P450 2D6 (P10635 whole entry): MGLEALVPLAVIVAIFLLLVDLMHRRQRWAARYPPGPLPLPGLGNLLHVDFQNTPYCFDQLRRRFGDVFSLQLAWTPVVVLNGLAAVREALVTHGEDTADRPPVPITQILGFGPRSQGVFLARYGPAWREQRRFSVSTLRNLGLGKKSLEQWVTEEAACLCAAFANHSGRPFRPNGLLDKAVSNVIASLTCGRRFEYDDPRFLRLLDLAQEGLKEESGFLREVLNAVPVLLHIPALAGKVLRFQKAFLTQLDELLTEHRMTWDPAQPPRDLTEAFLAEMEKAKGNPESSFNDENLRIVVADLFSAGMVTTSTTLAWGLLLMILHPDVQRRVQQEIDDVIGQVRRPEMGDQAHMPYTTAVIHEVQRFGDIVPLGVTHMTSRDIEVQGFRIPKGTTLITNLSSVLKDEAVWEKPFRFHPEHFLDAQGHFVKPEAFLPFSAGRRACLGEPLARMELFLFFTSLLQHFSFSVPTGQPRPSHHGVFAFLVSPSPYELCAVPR

For the compound `Cc1ccc(S(=O)(=O)Oc2ccc(C(c3c(C)n[nH]c3O)c3c(C)n[nH]c3O)cc2)cc1`, the half-maximal activity concentration (AC50) in test [1] was 7.06 µM (active). Moreover, the EC50 in test [2] is > 53 µM (inactive); on Protein RecA it was 46.2 µM (active).

Turning to `O=C(N/C=C/c1ccccc1)Nc1ccc(Cl)cc1`, the CC50 in [3] is 20.8 µM (active).

With `CCOc1ccc(S(=O)(=O)N2CCN(c3ccccc3)CC2)c2cccnc12`, the CC50 in test [3] was 30.9 µM (active).

`Oc1c(Br)cc(Br)cc1CNc1ccc(F)cc1`: the EC50 is 20.4 µM (active) in test [4], 84.4 µM (active) on Streptokinase A and > 150 µM (not active) in the test on Streptococcus.

In the case of `O=[N+]([O-])c1cc(C(F)(F)F)ccc1SCC(O)CO` (centres undefined), the cytotoxic concentration (CC50) in [3] was > 50 µM (active).

On to `c1ccc2c(CSCc3cccc4ccccc34)cccc2c1`, for which the AC50 on Cytochrome P450 2C9 is 3.16 µM (inconclusive).

For `Cc1nc2ccc(S(=O)(=O)NC(CC(C)C)C(=O)O)cc2s1` (centres undefined), the AC50 at Cytochrome P450 2C9 was 12.6 µM (inconclusive).

On to `O=C1C=C/C(=N/c2cccc3c(/N=C4\C=CC(=O)O4)cccc23)O1`, for which the AC50 at Cytochrome P450 2C9 is 6.31 µM (inconclusive).

Regarding `Cc1noc(C)c1COC(=O)CCN1c2ccccc2Sc2ccccc21`, in [3], the CC50 was 37.9 µM (active).

On to `CC(C)(C)C(=O)Nc1cccc(-c2cc(-c3c(Cl)cccc3Cl)no2)c1`, for which the EC50 in [5] was > 260 µM (inactive). The CC50 in test [3] was 12.9 µM (active).

Regarding `O=C(Nc1cnc(O)nc1O)c1cccc(F)c1`, the CC50 in test [3] is 18.6 µM (active).

With `O=C(CSc1nnc(CNC(=O)c2c(F)cccc2F)o1)NCc1ccccc1`, the EC50 (in test [4]; on Streptokinase A; in the test with Streptococcus) was > 150 µM (not active) throughout.

As to `Brc1ccc2c(c1)C(c1ccc(N3CCOCC3)cc1)=NNC(c1cccs1)=N2`, the CC50 in test [3] was 32.1 µM (active).

As for `COc1ccc(-c2oc3cccnc3c2C#CC2(O)CCCCC2)cc1`, the EC50 in test [4] is 7.18 µM (active); at Streptokinase A, > 150 µM (not active); in the test on Streptococcus, 11.1 µM (active).

Turning to `O=C(Nc1nnc(SCc2ccccc2Cl)s1)C1COc2ccccc2O1` (centres undefined), the EC50 in [4] was 4.52 µM (active); at Streptokinase A, 7.36 µM (active); with Streptococcus, 16.7 µM (active).

Turning to `Cc1oc2cc(O)cc(C)c2c(=O)c1-c1cnn(-c2ccccc2)c1`, the CC50 in test [3] is 15.6 µM (active).

With `Clc1ccc(SCc2cc(Cl)nc(-c3ccccc3)n2)cc1`, the EC50 in test [4] was > 150 µM (not active); at Streptokinase A, 17 µM (active); in the test on Streptococcus it was > 150 µM (not active).

For the compound `COc1cc(Cn2nnc3ccccc32)cc(Br)c1O`, in test [3], the CC50 was 23.2 µM (active).

Turning to `COc1ccc(N(C)C(=O)c2cc3c(s2)-c2c(C)cccc2OC3)c(OC)c1`, the AC50 in test [1] was 74.5 µM (active). For the same compound, the EC50 on Protein RecA was 133 µM (inconclusive). Moreover, the CC50 in [3] was 19.6 µM (active).

For `COC(=O)c1[nH]c2ccc(Br)cc2c1NC(=O)CN1CCCc2ccccc21`, the CC50 in test [3] is 41.9 µM (active).

`O=C(CNC(=O)c1ccc(F)cc1)N/N=C/c1cc(Br)ccc1OCc1ccccc1`: the EC50 in test [4] was 10.3 µM (active); on Streptokinase A, > 150 µM (not active); with Streptococcus it was 32.6 µM (active).

For the compound `C/C(=N\Nc1cccc([N+](=O)[O-])c1)c1cc(F)ccc1O`, the CC50 in test [3] was > 50 µM (active).

Turning to `O=C(Cc1ccccc1)N/N=C/c1ccccn1`, the EC50 (in test [4]; on Streptokinase A; in the test on Streptococcus) was > 150 µM (not active) each time.

`N[C@@H]1C[C@H]1c1ccccc1.N[C@H]1C[C@@H]1c1ccccc1` [TRANYLCYPROMINE]: the AC50 is 39.8 µM (inconclusive) at Cytochrome P450 2C9 and 31.6 µM (inconclusive) on Cytochrome P450 2D6.

Broadly, the AC50 is the concentration at which the activity in the assay is half-maximal. As usually defined, the CC50 is the concentration giving 50% cytotoxicity.
